Earlier results on one substance are cited in patent US4127535A, “Novel dipeptides, intermediates therefor, and compositions and methods employing said dipeptides” (priority 1977, dated 1978).

The conditions of data set [1]: injected directly into the brain of the rat; Belluzzi et al.
The conditions of data set [2]: literature.
The test system of data set [3] is partially purified brain opiate receptor sites. To be noted: literature, Bradbury et al.

Take “H-Tyr-Gly-Gly-Phe-Met-OH [methionine enkephalin]”: in data set [1], the analgesic activity result is “weak analgesic agent of short duration”. Further, in data set [2], the “activity in bioassays for opiate activity” value is “very active”. The “binding to partially purified brain opiate receptor sites” value in data set [3] was “binds stereo-specifically”.
